Here are results for eleven molecules from paper PMC6152224 (Molecules : A Journal of Synthetic Chemistry and Natural …, 2017).

The target of data set [1] is T1, hAChE (Homo sapiens, UniProt P22303).
T1 construct: purchased Sigma-Aldrich (Prague, Czech Republic)
In words: Kinetic study of AChE inhibition (Lineweaver-Burk, nonlinear regression). Type of data set: biochemical.

The nature of data set [2]: Experimentally determined physicochemical values with Sirius T3 device.
Data set [3] relates to HepG2 cell line. In words: cells. The settings on record: read-out: IC50 ± SEM HepG2. The data set is classed as cell-based, human.
The test system of data set [4] is ACHN cell line. The data set is described as follows: cells. The data set is classed as cell-based, human. Particulars: read-out: IC50 ± SEM ACHN.
For data set [5], the system named is SH-SY5Y cell line. In words: cells. The data set is classed as cell-based, human. The settings on record: read-out: IC50 ± SEM SH-SY5Y.
Data set [6] in a line: in vitro. The settings on record: PAMPA, pH 7.4.
Data set [7] deals with T2, human plasmatic BChE (hBChE) (Homo sapiens, UniProt P06276).
T2 construct: human plasmatic BChE (hBChE, E.C. 3.1.1.8, purchased from Sigma-Aldrich); purchased Sigma-Aldrich (Prague, Czech Republic); host or cells: human plasma
T2 sequence (P06276 29-602): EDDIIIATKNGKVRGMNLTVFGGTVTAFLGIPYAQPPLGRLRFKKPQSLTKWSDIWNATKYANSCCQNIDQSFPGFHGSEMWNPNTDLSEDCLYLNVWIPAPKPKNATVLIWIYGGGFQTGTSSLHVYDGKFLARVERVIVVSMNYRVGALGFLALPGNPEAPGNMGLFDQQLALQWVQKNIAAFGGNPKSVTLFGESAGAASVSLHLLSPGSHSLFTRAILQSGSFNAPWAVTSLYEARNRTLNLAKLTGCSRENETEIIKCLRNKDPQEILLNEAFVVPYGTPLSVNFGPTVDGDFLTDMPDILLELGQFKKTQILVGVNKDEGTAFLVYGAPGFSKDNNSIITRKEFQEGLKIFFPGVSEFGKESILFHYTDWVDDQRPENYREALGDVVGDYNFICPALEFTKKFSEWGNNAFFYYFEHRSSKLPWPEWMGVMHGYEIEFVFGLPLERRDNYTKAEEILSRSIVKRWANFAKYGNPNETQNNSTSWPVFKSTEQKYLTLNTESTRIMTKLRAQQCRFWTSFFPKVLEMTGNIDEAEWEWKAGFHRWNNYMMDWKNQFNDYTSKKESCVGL
The data set is described as follows: In vitro anti-cholinesterase assay (modified Ellman's method), hBChE. Particulars: mean of at least three experiments; read-out: IC50 ± SEM hBChE. The data set is classed as biochemical.

For data set [8] the following is noted: PAMPA; taken from ref 52, 53; cited from earlier work.
The test system of data set [9] is hBChE. Particulars: literature value; cited from earlier work.
The conditions of data set [10]: PAMPA, pH 7.4.
Data set [11] has as its system AChE. Set-up: method as in PMID 23480140. The settings on record: versus THA and (−)-huperzine A; cited from earlier work.
The subject of data set [12] is 3-nitropropionic acid (3-NP) intoxication. The settings on record: 3-NP-induced assay, HupY pretreatment; cited from earlier work.
In data set [13] the test system is HepG2, ACHN and SH-SY5Y cell lines. The data set is described as follows: cells. The settings on record: Homo sapiens, 24 h, read-out: IC50 values for all the tested cell lines.
Where [14] appears, read: MTT, cytotoxic profile assessed after 24 h.

Each structure is given as a SMILES string. Where a name gives a salt, the structure may show the parent alone. Read-outs that look alike come from different tables or passages of the source.

T1 sequence (P22303 32-614): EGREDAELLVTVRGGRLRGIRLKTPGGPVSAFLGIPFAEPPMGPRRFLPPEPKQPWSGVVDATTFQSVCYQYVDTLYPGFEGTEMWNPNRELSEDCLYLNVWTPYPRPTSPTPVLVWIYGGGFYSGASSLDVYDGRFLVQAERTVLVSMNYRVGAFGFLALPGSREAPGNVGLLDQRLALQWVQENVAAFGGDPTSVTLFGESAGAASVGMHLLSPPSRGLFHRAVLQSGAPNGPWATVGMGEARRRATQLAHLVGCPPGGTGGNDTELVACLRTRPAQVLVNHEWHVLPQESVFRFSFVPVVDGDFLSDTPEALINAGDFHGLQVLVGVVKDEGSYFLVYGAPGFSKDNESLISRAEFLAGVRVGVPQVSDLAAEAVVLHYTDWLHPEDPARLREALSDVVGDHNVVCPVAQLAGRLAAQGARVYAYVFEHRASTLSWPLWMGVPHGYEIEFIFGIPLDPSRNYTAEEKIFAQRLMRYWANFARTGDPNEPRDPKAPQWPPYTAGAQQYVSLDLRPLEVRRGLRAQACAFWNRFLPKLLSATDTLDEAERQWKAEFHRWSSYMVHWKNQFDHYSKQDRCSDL

`COc1ccc2nc3c(c(N)c2c1)C1CC(C)=CC(C3)C1` (racemic) [(±)-1·HCl, rac-6-Methoxy-15-methyl-10-azatetracyclo[11.3.1.0^2,11.0^4,9]heptadeca-2(11),3,5,7,9,14-hexaen-3-amine hydrochloride]: the “Ki'” value in data set [1] (enzyme-substrate complex, inhibitor 1.00, 10.0 and 100 µM) turned out to be 3.67 ± 0.42 µM. Further, the type of inhibition entry in data set [1] (nonlinear regression, sum-of-squares F-test, p < 0.05) is reported as “mixed type of inhibition”. Moreover, the logD in [2] (pH 7.4, read-out: logD7.4 (experimental)) came out at 1.73. Besides, the logP in data set [2] (read-out: logP (experimental)) came out at 3.58. The pKa in data set [2] (read-out: pKa (experimental)) worked out at 9.54. Besides, the IC50 in data set [3] (Homo sapiens, HepG2, 24 h) was determined as 14.91 ± 0.11 µM; in data set [4] (Homo sapiens, ACHN, 24 h), 32.2 ± 0.72 µM; in [5] (Homo sapiens, SH-SY5Y, 24 h) it was 17.84 ± 0.09 µM. The molecule also registered a Papp at 100 µM in data set [6] of 7.64 ± 0.22 ×10⁻⁶ cm/s.

For `CC1=CC2Cc3nc4cc(Cl)ccc4c(N)c3C(C1)C2` (racemic) [(±)-HupY·HCl, rac-7-Chloro-15-methyl-10-azatetracyclo[11.3.1.0^2,11.0^4,9]heptadeca-2(11),3,5,7,9,14-hexaen-3-amine hydrochloride], the IC50 in data set [7] was 0.358 ± 0.025 µM; in [3] (Homo sapiens, HepG2, 24 h), 15.9 ± 1.17 µM; in data set [4] (Homo sapiens, ACHN, 24 h), 24.6 ± 0.32 µM; in data set [5] (Homo sapiens, SH-SY5Y, 24 h) it was 17.5 ± 0.44 µM. Moreover, in [6], the apparent permeability (Papp) amounted to 5.89 ± 0.36 ×10⁻⁶ cm/s.

For the molecule `Nc1c2c(nc3cc(Cl)ccc13)CCCC2` [6-chlorotacrine], the IC50 in [3] is 43.2 ± 1.17 µM; in [4] (setting [14]), 55.1 ± 1.76 µM; in [5] (setting [14]) it was 50.4 ± 1.28 µM. Moreover, the “Pe ± SEM” value in [8] was 5.00 ± 0.45 ^c 10^−6 cm·s^−1.

On to `CC1=C[C@H]2Cc3nc4cc(Cl)ccc4c(N)c3[C@@H](C1)C2` [(+)-HupY], for which, in [9], the IC50 was 0.153 µM.

For the molecule `CC1=C[C@@H]2Cc3nc4cc(Cl)ccc4c(N)c3[C@H](C1)C2` [(−)-HupY], the IC50 in data set [9] is 0.247 µM.

For `CO/N=C(\C(=O)N[C@@H]1C(=O)N2C(C(=O)O)=C(COC(N)=O)CS[C@H]12)c1ccco1` [Cefuroxim, cefuroxime], in [10], the “Pe ± SEM” value is on record as 2.70 ± 0.1 10^−6 cm·s^−1.

On to `COc1ccc2nc3c(c(N)c2c1)CCCC3` [Compound 7-MEOTA, 7-methoxytacrine], for which the IC50 stood at 44.4 ± 3.35 µM in data set [3] (Homo sapiens, HepG2, 24 h); 49.3 ± 2.69 µM in data set [4] (Homo sapiens, ACHN, 24 h); 26.8 ± 1.04 µM in data set [5] (Homo sapiens, SH-SY5Y, 24 h). Further, the Papp in [6] stood at 6.5 ± 1.85 ×10⁻⁶ cm/s.

As to `CCC1=CC2Cc3nc4cc(Cl)ccc4c(N)c3[C@@H](C1)C2` [HupX], in [11], the “AChE inhibition potency relative to the parent structures” value is given as “more than 100 times”.

Turning to `CC1=CC2Cc3nc4cc(Cl)ccc4c(N)c3C(C1)C2` (centres unmarked) [HupY], the “survival of pretreated mice” value in data set [12] is listed as “increased the survival”.

On to `CN1C(C(=O)Nc2ccccn2)=C(O)c2ccccc2S1(=O)=O` [Piroxicam, piroxicam], for which the “Pe ± SEM” value in [10] is on record as 2.20 ± 0.15 10^−6 cm·s^−1.

On to `Nc1c2c(nc3ccccc13)CCCC2` [THA, 1,2,3,4-tetrahydro-9-aminoacridine], for which the IC50 in data set [4] (Homo sapiens, ACHN, 24 h) was 155.2 ± 0.67 µM; in [5] (Homo sapiens, SH-SY5Y, 24 h), 121 ± 1.97 µM; in data set [13], 120 to 168 µM. Besides, the “Pe ± SEM” value in data set [8] is 5.30 ± 0.20 ^c 10^−6 cm·s^−1.
